The values below come from US20090325959A1 (priority 2008, published 2009).

What all share (type): biochemical
The target of one experiment is T1, ROCK1 (Homo sapiens, UniProt Q13464).
T1 construct: purchased Upstate/Chemicon 14-601
The experiment is described as follows: Rho kinase inhibition assay (IMAP fluorescence polarization), ROCK1.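 Note: kinase reaction run 60 min at room temperature, then phosphorylated substrate captured on IMAP beads for 30 min, with fluorescence polarization read in mP.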

Another experiment deals with T2, ROCK2 (Homo sapiens, UniProt O75116).
T2 construct: purchased Upstate/Chemicon 14-451
Kind of experiment: Rho kinase inhibition assay (IMAP fluorescence polarization), ROCK2.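 Note: kinase reaction started with 10 µM ATP and run 60 min at room temperature, then phosphorylated substrate captured on IMAP beads for 30 min and fluorescence polarization read in mP.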

For a further experiment, the target named is T3, Akt3 human enzyme (Homo sapiens, UniProt Q9Y243).
T3 construct: purchased Upstate Chemicon 14-502
Kind of experiment: Akt3 inhibition assay (IMAP FP).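 Note: kinase reaction run 60 min at room temperature after 30 µM ATP start, phosphorylated substrate captured on IMAP beads and read as fluorescence polarization (mP).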 Conditions: 30 μM ATP; Ki=IC50/(1+([ATP Challenge]/EC50 ATP)); read-out: Akt3 Ki, Avg.

A further experiment addresses T4, p70S6K human enzyme (Homo sapiens, UniProt P23443, T412E).
T4 construct: purchased Upstate Chemicon 14-486
Kind of experiment: p70S6K inhibition assay (IMAP FP).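 Note: kinase reaction run at room temperature, phosphorylated substrate captured on IMAP beads and read as fluorescence polarization in mP, IC50 then converted to Ki.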 Conditions: 30 μM ATP; Ki=IC50/(1+([ATP Challenge]/EC50 ATP)); read-out: p70S6K Ki, Avg.

The mark [1] stands for this setting: 10 μM ATP, read-out: ROCK2 Ki, Avg.

The structures appear in SMILES notation. Read-outs that look alike come from different tables or passages of the source.

T1 sequence (Q13464 17-535 limits assumed): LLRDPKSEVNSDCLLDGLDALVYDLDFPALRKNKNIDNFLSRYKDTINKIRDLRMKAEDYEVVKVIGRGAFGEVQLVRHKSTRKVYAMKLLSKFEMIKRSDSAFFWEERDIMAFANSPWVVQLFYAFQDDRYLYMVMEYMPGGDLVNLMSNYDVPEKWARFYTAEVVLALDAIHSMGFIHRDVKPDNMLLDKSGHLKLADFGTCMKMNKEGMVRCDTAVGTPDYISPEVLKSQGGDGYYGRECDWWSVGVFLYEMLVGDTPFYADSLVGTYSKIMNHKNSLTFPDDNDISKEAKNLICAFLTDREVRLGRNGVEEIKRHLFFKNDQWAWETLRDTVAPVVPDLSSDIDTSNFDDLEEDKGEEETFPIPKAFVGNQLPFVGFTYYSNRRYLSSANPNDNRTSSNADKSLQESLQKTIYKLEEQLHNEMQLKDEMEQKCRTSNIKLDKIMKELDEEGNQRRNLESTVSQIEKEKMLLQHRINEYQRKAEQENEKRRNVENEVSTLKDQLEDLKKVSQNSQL
T2 sequence (O75116 11-552 limits assumed): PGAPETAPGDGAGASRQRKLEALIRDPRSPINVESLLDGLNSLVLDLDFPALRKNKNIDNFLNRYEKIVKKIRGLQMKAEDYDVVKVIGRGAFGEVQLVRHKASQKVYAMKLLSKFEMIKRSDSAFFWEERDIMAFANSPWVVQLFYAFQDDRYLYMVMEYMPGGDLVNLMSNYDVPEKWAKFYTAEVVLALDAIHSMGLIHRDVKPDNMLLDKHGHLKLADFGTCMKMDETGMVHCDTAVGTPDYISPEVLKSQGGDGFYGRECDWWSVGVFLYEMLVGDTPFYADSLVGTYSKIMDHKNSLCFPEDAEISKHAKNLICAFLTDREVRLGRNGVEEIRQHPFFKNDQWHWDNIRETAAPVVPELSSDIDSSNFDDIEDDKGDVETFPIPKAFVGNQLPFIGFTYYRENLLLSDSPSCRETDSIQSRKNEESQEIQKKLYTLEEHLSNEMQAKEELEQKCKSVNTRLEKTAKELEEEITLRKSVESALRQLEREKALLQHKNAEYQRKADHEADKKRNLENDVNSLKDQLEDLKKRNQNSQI
T4 sequence (P23443 1-421 T412E limits assumed): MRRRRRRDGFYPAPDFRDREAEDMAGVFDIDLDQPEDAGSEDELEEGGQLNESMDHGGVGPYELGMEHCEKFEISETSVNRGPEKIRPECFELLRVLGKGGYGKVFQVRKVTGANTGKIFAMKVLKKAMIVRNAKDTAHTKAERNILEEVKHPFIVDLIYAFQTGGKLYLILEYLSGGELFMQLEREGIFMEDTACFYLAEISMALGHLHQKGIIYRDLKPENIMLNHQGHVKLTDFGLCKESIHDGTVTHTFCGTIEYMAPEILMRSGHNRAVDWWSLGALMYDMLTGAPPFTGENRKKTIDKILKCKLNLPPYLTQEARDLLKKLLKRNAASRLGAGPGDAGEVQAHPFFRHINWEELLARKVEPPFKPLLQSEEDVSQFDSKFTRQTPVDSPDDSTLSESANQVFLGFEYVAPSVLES
T3 sequence (Q9Y243 whole entry): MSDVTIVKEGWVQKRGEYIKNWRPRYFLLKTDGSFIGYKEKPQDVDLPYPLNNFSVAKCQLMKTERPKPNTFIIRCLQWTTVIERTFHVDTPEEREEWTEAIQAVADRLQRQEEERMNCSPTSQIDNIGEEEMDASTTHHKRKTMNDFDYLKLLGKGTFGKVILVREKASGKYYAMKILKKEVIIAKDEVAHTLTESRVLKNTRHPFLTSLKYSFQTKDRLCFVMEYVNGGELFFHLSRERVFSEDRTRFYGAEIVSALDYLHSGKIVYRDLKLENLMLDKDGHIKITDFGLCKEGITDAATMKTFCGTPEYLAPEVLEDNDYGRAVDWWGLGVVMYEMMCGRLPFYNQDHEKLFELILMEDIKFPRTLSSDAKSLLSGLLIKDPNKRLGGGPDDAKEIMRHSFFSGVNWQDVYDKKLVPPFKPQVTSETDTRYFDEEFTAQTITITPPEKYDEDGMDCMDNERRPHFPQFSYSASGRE
Method for ROCK1: (§1) Following the pre-incubation, 10 μM ATP was added to initiate the reaction. After 60 minutes at room temperature, Molecular Devices IMAP™ binding solution was added to bind phosphorylated substrate. After 30 minutes of incubation in the presence of the IMAP™ beads, the fluorescence polarization was read and the ratio was reported as mP. IC50 values for compounds and EC50 values for ATP were calculated using the Prism software from Graphpad.
Method for ROCK2: as §1

For `COc1ccc(CN2CCC[C@@H](Nc3ccc4[nH]ncc4c3)C2)cc1` [Compound 1.226, (R)-N-(1-(4-methoxybenzyl)piperidin-3-yl)-1H-indazol-5-amine], the inhibition constant Ki at ROCK1 (Avg, 10 μM ATP) was found to be 91.7 nM; at ROCK2 (setting [1]) it was 8.8 nM; at Akt3 human enzyme, 531 nM; at p70S6K human enzyme it was 1350 nM.

Take `CSc1cccc(CN2CCC[C@@H](Nc3ccc4[nH]ncc4c3)C2)c1` [Compound 1.159, (R)-N-(1-(3-(methylthio)benzyl)piperidin-3-yl)-1H-indazol-5-amine]: the Ki on ROCK1 (Avg, 10 μM ATP) turned out to be 48.1 nM; on ROCK2 (setting [1]), 10.1 nM; at Akt3 human enzyme, 1230 nM; on p70S6K human enzyme it was 2060 nM.

Regarding `c1cc(C2CC2)ccc1CN1CCC[C@H](Nc2ccc3[nH]ncc3c2)C1` [Compound 1.185, (S)-N-(1-(4-cyclopropylbenzyl)piperidin-3-yl)-1H-indazol-5-amine], the inhibitory constant (Ki) on ROCK1 (Avg, 10 μM ATP) is 81.6 nM; on ROCK2 (setting [1]), 12.6 nM; at Akt3 human enzyme, 4220 nM; at p70S6K human enzyme, 1150 nM.

As to `Brc1ccc(CN2CCC[C@H](Nc3ccc4[nH]ncc4c3)C2)cc1` [Compound 1.142, (S)-N-(1-(4-bromobenzyl)piperidin-3-yl)-1H-indazoi-5-amine], the Ki on ROCK1 (Avg, 10 μM ATP) was found to be 104 nM; on ROCK2 (setting [1]), 12 nM; on Akt3 human enzyme, 8270 nM; at p70S6K human enzyme, 2520 nM.

Consider `Cc1ccc(CN2CCC[C@H](Nc3ccc4[nH]ncc4c3)C2)cc1` [Compound 1.078, (S)-N-(1-(4-methylbenzyl)piperidin-3-yl)-1H-indazol-5-amine], for which the Ki on ROCK1 (Avg, 10 μM ATP) was 36.3 nM; at ROCK2 (setting [1]) it was 3.6 nM; at Akt3 human enzyme it was 3270 nM; on p70S6K human enzyme, 1680 nM.

With `OCCn1ccc2cc(CN3CCC[C@H](Nc4ccc5[nH]ncc5c4)C3)ccc21` [Compound 1.269, (S)-2-(5-((3-(1H-indazol-5-ylamino)piperidin-1-yl)methyl)-1H-indol-1-yl)ethanol], the inhibition constant (Ki) at ROCK1 (Avg, 10 μM ATP) was 239 nM; at ROCK2 (setting [1]) it was 22.8 nM.

On to `[O-][n+]1ccc2c(N[C@@H]3CCN(Cc4cccc(OCCO)c4)C3)cccc2c1` [Compound 2.081, (R)-5-(1-(3-(2-hydroxyethoxy)benzyl)pyrrolidin-3-ylamino)isoquinoline 2-oxide], for which the Ki stood at 1450 nM on ROCK1 (Avg, 10 μM ATP) and 1110 nM on ROCK2 (setting [1]).

In the case of `CC(C)(C)OC(=O)NCc1cccc(CN2CCC[C@@H](Nc3ccc4[nH]ncc4c3)C2)c1` [Compound 1.140, (R)-tert-butyl 3-((3-(1H-indazol-5-ylamino)piperidin-1-yl)methyl)benzylcarbamate], the inhibition constant (Ki) amounted to 236 nM at ROCK1 (Avg, 10 μM ATP) and 32.9 nM on ROCK2 (setting [1]).

Regarding `OC[C@@H](O)COc1cccc(CN2CCC[C@@H](Nc3ccc4[nH]ncc4c3)C2)c1` [Compound 1.115, (R)-3-(3-(((R)-3-(1H-indazol-5-ylamino)piperidin-1-yl)methyl)phenoxy)propane-1,2-diol], the Ki is 89.7 nM on ROCK1 (Avg, 10 μM ATP) and 20.6 nM at ROCK2 (setting [1]).

Turning to `Clc1ccc(CN2CCC[C@H](Nc3ccc4[nH]ncc4c3)C2)cc1Cl` [Compound 1.080, (S)-N-(1-(3,4-dichlorobenzyl)piperidin-3-yl)-1H-indazol-5-amine], the Ki on ROCK1 (Avg, 10 μM ATP) was found to be 131 nM; on ROCK2 (setting [1]), 15.2 nM.

On to `C[C@@H](O)COc1cccc(CN2CCC[C@H](Nc3ccc4[nH]ncc4c3)C2)c1` [Compound 1.118, (R)-1-(3-(((S)-3-(1H-indazol-5-ylamino)piperidin-1-yl)methyl)phenoxy)propan-2-ol], for which the Ki worked out at 462 nM at ROCK1 (Avg, 10 μM ATP) and 81.7 nM at ROCK2 (setting [1]).

As to `Cc1ccc(CN2CC[C@@H](Nc3cccc4cnccc34)C2)cc1OCC(=O)OC(C)(C)C` [Compound 2.071, (R)-tert-butyl 2-(5-((3-(isoquinolin-5-ylamino)pyrrolidin-1-yl)methyl)-2-methylphenoxy)acetate], the Ki at ROCK1 (Avg, 10 μM ATP) is 21.2 nM; at ROCK2 (setting [1]) it was 11.9 nM.

With `c1cc(N[C@@H]2CCN(Cc3ccsc3)C2)c2ccncc2c1` [Compound 2.088, (R)-N-(1-(thiophen-3-ylmethyl)pyrrolidin-3-yl)isoquinolin-5-amine], the Ki was determined as 38.7 nM on ROCK1 (Avg, 10 μM ATP) and 13.6 nM on ROCK2 (setting [1]).

With `Cc1ccc(CN2CC[C@@H](Nc3cccc4cnccc34)C2)cc1NS(C)(=O)=O` [Compound 2.076], the Ki on ROCK1 (Avg, 10 μM ATP) was 8 nM; on ROCK1 (average Ki), 8 nM; at ROCK2 (setting [1]), 2.4 nM; on ROCK2 (average Ki, read-out: ROCK2 Ki) it was 2.4 nM.

As to `CC(=O)NCc1cccc(CN2CCC[C@@H](Nc3ccc4[nH]ncc4c3)C2)c1` [Compound 1.194], the Ki at ROCK1 (Avg, 10 μM ATP) is 176 nM; on ROCK2 (setting [1]), 20.2 nM.

As for `CSc1ccc(CN2CCC[C@H](Nc3cccc4cnccc34)C2)cc1` [Compound 2.051, (S)-N-(1-(4-(methylthio)benzyl)piperidin-3-yl)isoquinolin-5-amine], the Ki at ROCK1 (Avg, 10 μM ATP) amounted to 1440 nM; on ROCK2 (setting [1]) it was 1180 nM.

With `CC(=O)NCCOc1cccc(CN2CCC[C@@H](Nc3ccc4[nH]ncc4c3)C2)c1` [Compound 1.211, (R)-N-(2-(3-((3-(1H-indazol-5-ylamino)piperidin-1-yl)methyl)phenoxy)ethyl)acetamide], the Ki at ROCK1 (Avg, 10 μM ATP) stood at 395 nM; on ROCK2 (setting [1]), 57.6 nM.

Regarding `COc1c(CN2CC[C@@H](Nc3cccc4cnccc34)C2)cccc1NS(C)(=O)=O` [Compound 2.096, (R)-N-(3-((3-(isoquinolin-5-ylamino)pyrrolidin-1-yl)methyl)-2-methoxyphenyl)methanesuifonamide], the Ki at ROCK1 (Avg, 10 μM ATP) was found to be 70.2 nM; at ROCK1 (average Ki), 70.2 nM; at ROCK2 (setting [1]), 9.6 nM; on ROCK2 (average Ki, read-out: ROCK2 Ki), 9.6 nM.

Turning to `COc1ccc(CN2CC[C@@H](Nc3cccc4cnccc34)C2)cc1NS(C)(=O)=O` [Compound 2.098, (R)-N-(5-((3-(isoquinolin-5-ylamino)pyrrolidin-1-yl)methyl)-2-methoxyphenyl)methanesulfonamide], the Ki on ROCK1 (Avg, 10 μM ATP) was 382 nM; at ROCK2 (setting [1]), 73.5 nM.

With `c1cc(CN2CCC[C@@H](Nc3ccc4[nH]ncc4c3)C2)cc(-c2ccco2)c1` [Compound 1.250, (R)-N-(1-(3-(furan-2-yl)benzyl)piperidin-3-yl)-1H-indazol-5-amine], the Ki at ROCK1 (Avg, 10 μM ATP) turned out to be 247 nM; at ROCK2 (setting [1]) it was 45.8 nM.

As for `OCCOc1cc(CN2CC[C@@H](Nc3cccc4cnccc34)C2)ccc1F` [Compound 2.068, (R)-2-(2-fluoro-5-((3-(isoquinolin-5-ylamino)pyrrolidin-1-yl)methyl)phenoxy)ethanol], the Ki came to 8 nM at ROCK1 (Avg, 10 μM ATP); 8 nM on ROCK1 (average Ki); 5.8 nM at ROCK2 (setting [1]); 5.8 nM on ROCK2 (average Ki, read-out: ROCK2 Ki).

For `Cc1cccc(CN2CCC[C@@H](Nc3ccc4[nH]ncc4c3)C2)c1C` [Compound 1.172, (R)-N-(1-(2,3-dimethylbenzyl)piperidin-3-yl)-1H-indazol-5-amine], the Ki on ROCK1 (Avg, 10 μM ATP) came to 103 nM; on ROCK2 (setting [1]) it was 20.5 nM.

In the case of `NCc1ccc(CN2CCC[C@H](Nc3ccc4[nH]ncc4c3)C2)cc1` [Compound 1.201, (S)-N-(1-(4-(aminomethyl)benzyl)piperidin-3-yl)-1H-indazol-5-amine], the Ki at ROCK1 (Avg, 10 μM ATP) is 1590 nM; on ROCK2 (setting [1]) it was 230 nM.

As to `CC(=O)NCCOc1cccc(CN2CCC[C@H](Nc3ccc4[nH]ncc4c3)C2)c1` [Compound 1.218, (S)-N-(2-(3-((3-(1H-indazol-5-ylamino)piperidin-1-yl)methyl)phenoxy)ethyl)acetamide], the Ki at ROCK1 (Avg, 10 μM ATP) came out at 402 nM; at ROCK2 (setting [1]), 30.7 nM.

For `NCc1cccc(CN2CCC[C@H](Nc3ccc4[nH]ncc4c3)C2)c1` [Compound 1.184, (S)-N-(1-(3-(aminomethyl)benzyl)piperidin-3-yl)-1H-indazol-5-amine], the Ki amounted to 843 nM at ROCK1 (Avg, 10 μM ATP) and 90.9 nM on ROCK2 (setting [1]).

For the molecule `c1ccc(CN2CCC[C@H](Nc3cccc4cnccc34)C2)cc1` [Compound 2.050, (S)-N-(1-benzylpiperidin-3-yl)isoquinolin-5-amine], the Ki on ROCK1 (Avg, 10 μM ATP) is 368 nM; on ROCK2 (setting [1]) it was 251 nM.

With `c1cn(-c2ccc(CN3CCC[C@H](Nc4ccc5[nH]ncc5c4)C3)cc2)cn1` [Compound 1.255], the Ki at ROCK1 (Avg, 10 μM ATP) worked out at 3560 nM; at ROCK2 (setting [1]), 359 nM.

`CC(C)(C)OC(=O)COc1cccc(CN2CCC[C@H](Nc3ccc4[nH]ncc4c3)C2)c1` [Compound 1.187, (S)-tert-butyl 2-(3-((3-(1H-indazol-5-ylamino)piperidin-1-yl)methyl)phenoxy)acetate]: the inhibition constant Ki came out at 296 nM on ROCK1 (Avg, 10 μM ATP) and 17.3 nM on ROCK2 (setting [1]).

Consider `CCOc1cccc(CN2CCC[C@@H](Nc3ccc4[nH]ncc4c3)C2)c1` [Compound 1.203, (R)-N-(1-(3-ethoxybenzyl)piperidin-3-yl)-1H-indazol-5-amine], for which the Ki is 329 nM at ROCK1 (Avg, 10 μM ATP) and 41.6 nM at ROCK2 (setting [1]).

As to `OCCn1cc(CN2CC[C@@H](Nc3cccc4cnccc34)C2)c2ccccc21` [Compound 2.072, (R)-2-(3-((3-(isoquinolin-5-ylamino)pyrrolidin-1-yl)methyl)-1H-indol-1-yl)ethanol], the Ki was 7.5 nM on ROCK1 (Avg, 10 μM ATP); 7.5 nM on ROCK1 (average Ki); 4.4 nM at ROCK2 (setting [1]); 4.4 nM at ROCK2 (average Ki, read-out: ROCK2 Ki).

For `O=C(O)COc1cccc(CN2CCC[C@@H](Nc3ccc4[nH]ncc4c3)C2)c1` [Compound 1.125, (R)-2-(3-((3-(1H-indazol-5-ylamino)piperidin-1-yl)methyl)phenoxy)acetic acid], the inhibition constant (Ki) on ROCK1 (Avg, 10 μM ATP) turned out to be 557 nM; at ROCK2 (setting [1]), 50.9 nM.

On to `O=C(OCCOc1cccc(CN2CCC[C@H](Nc3ccc4[nH]ncc4c3)C2)c1)c1ccccc1` [Compound 1.224, (S)-2-(3-((3-(1H-indazol-5-ylamino)piperidin-1-yl)methyl)phenoxy)ethyl benzoate], for which the Ki on ROCK1 (Avg, 10 μM ATP) is 487 nM; at ROCK2 (setting [1]), 77.5 nM.
